According to a melting point compilation (Tetko et al.; mined from patent text by program, amines drawn as free bases though some values may be those of a salt):

Compound | melting point [°C]
Cc1cc(C)c(Cc2nc(C)nc(Cl)c2C)c(C)c1 | 82 to 84
Nc1ccc(S(=O)(=O)c2cc(Cl)nc(N3CCCC3)c2)cc1 | 225 to 226
C#Cc1cccc(-n2c(=O)oc3ccc(-c4ccc(F)cc4F)cc3c2=O)c1 | 195 to 196
CC1=CC2CC(O)CCC2(C)C2=C1C1CCC(C(C)CCCC(C)C)C1(C)CC2 (configuration not stated) | 112 to 113
Clc1ccc2ccc(/C=C/c3cccc(CN4CCc5cccc(CCc6nnn[nH]6)c54)c3)nc2c1 | 141 to 144
O=C1C2C=CCCC2C(=O)N1CCO (configuration not stated) | 48 to 51
Cc1c(C(=O)C23CC4CC(CC(C4)C2)C3)oc2cc(F)ccc12 | 107 to 109
Cc1cc(C#N)cc(CBr)c1 | 80 to 81
CCn1c(C)nc2c(C3=NC(C)(C(C)C)C(=O)N3)c(C(=O)OC)ccc21 (configuration not stated) | 189 to 191
COc1cc(F)c(C(=O)CCCCCBr)cc1OC | 81 to 83
C(=Nc1ccccn1)N(c1ccccc1)c1ccccc1 | 92 to 94
CCOC(=O)/C=C/c1cn(-c2ccc(C(F)(F)F)cn2)nc1C1CCCCC1 | 132 to 133
Cc1c[nH]c(=O)n(CCCCl)c1=O | 117 to 121
CC(C)c1c(C=O)c(-c2ccc(F)cc2)n2c1CCCC2 | 100 to 101
CC1(C)NC(=O)CN1C(=O)CN | 145 to 148
COc1ccc(-c2nc(C(=O)C(F)(F)F)[nH]c2-c2ccc(OC)cc2)cc1 | 191 to 192
c1n[nH]c2c1CCc1[nH]ncc1-2 | 219 to 221
COc1ccc(Br)c(COc2ccc3ccc(OC)cc3c2)c1 | 156 to 157
Cc1cc(Br)cc(-c2ccc3c(c2)C(C)(C)OC(=S)N3)c1 | 183 to 184
COC(=O)C=C1CCOc2ccc(Cl)cc21 | 113 to 115
CCN1CCCC1CNC(=O)c1c(C)[nH]c(C=O)c1C (configuration not stated) | 166 to 169
O=C(c1ccc(F)cc1)N1CCC[C@H](c2nc(-c3ccc4ccccc4c3)no2)C1 | 142 to 143
COc1ccc(CC(C)NCC(O)c2cccc(F)c2)cc1 (configuration not stated) | 85 to 89

Compound | melting point [°C]
COc1cc(C(C)C)c2c(c1)S(=O)(=O)N(COc1cc(C(F)(F)F)nn1-c1ccncc1)C2=O | 161 to 162
O=C(Nc1cc(-c2ccnc3c(C(=O)c4cccs4)cnn23)ccc1F)c1c(F)cccc1F | 198 to 200
CN1CCN(c2cccc(-c3cnn4c(N)c(Cc5cccc(Br)c5)cnc34)c2)CC1 | 170 to 171
CC(=O)Oc1c(C)nc(N)nc1C(C)C | 141 to 142
O=S(=O)(Nc1ccccc1OC1CCCCC1)C(F)(F)F | 83 to 85
Cc1ncncc1C(=O)Nc1cnc(-n2nc(C(F)(F)F)cc2C2CC2)nc1 | 201 to 203
CC(=O)OC1COC(SCCCCCCOC2CCC3(C)C(=CCC4C3CCC3(C)C(C(C)CCCC(C)C)CCC43)C2)C(OC(C)=O)C1OC(C)=O (configuration not stated) | 106 to 108
CCCNC(=O)NC1CCCCC1 | 108 to 109
CC1=NN(C)C(=O)C1(Cl)C(Cl)c1ccc(Cl)cc1Cl (configuration not stated) | 113 to 115
CC(=O)SCC(C)C(=O)N(CC(=O)O)C1CCC1 (configuration not stated) | 162 to 164
Nc1ncc(Cl)c(CCl)c1Cl | 124 to 126
CCOC(=O)c1cn2c3c(c(F)c(Cl)cc3c1=O)OCC2C (configuration not stated) | 263 to 264
O=C1NCCN1CCN1CCC(c2cn(-c3ccc(F)cc3)c3ccc(O)cc23)CC1 | 220
CC(c1ccc(Oc2ccc(N)cc2)cc1)(c1ccc(Oc2ccc(N)cc2)cc1)c1ccc(Oc2ccc(N)cc2)cc1 | 220 to 221
Cn1cnc2nc(-c3ccc(Cl)cc3)nn2c1=S | 283 to 285
O=C(O)C(Cl)(Cl)CCCCCCCCCCOc1ccc(Cl)cc1 | 63 to 64
CCCCCCCCCCSCCCCCCCCCCNC(=O)OCCN1CCOCC1 | 91
CC(C)(C)OC(=O)C1CCCN2CC(CBr)C(=O)N12 (configuration not stated) | 88 to 89
CNC(=S)NCCS(=O)Cc1nc[nH]c1C (configuration not stated) | 139 to 140
O=C(O)c1sc(Cl)nc1C(F)(F)F | 131 to 132
CC(=O)Nc1ccc2c(c1)CCN2NC(C)=O | 217 to 218
CC(C)C1=CC2=CCC3C(C)(C(=O)N(C)C4CCCCC4)CCCC3(C)C2CC1 (configuration not stated) | 130 to 132
CCNC(=O)c1ccc(N2CCN(Cc3cc4c(c(OC(F)F)c3)OC(C)C(=O)N4)CC2)c(Cl)c1 (configuration not stated) | 102 to 104

Now from value to compound:

melting point [°C] | Compound
159 to 161 | Cc1cc(O)c2ccccc2c1OCc1ccccc1
85 to 87 | OCc1cc2ccsc2s1
98 | CC(C)=CCC(C)(C)C(=O)/C=C/[C@@H]1[C@H]2CC(=O)O[C@H]2C[C@H]1OC(=O)c1ccccc1
180 to 181 | Cc1oc(-c2ccccc2)nc1COc1ccc(Sc2nc(CC(=O)O)cs2)cc1
191 to 193 | COc1cc(N(C(=O)COCCOCC(N)=O)c2cc(OC)cc3ccc(C)nc23)c2nc(C)ccc2c1
175 to 176 | Cc1c[nH]c(=O)c2ccccc12
182 to 183 | CC(C)n1cnc2c(NCc3cccc(O)c3O)nc(NC[C@@H](C)O)nc21
211 to 213 | CCOC(=O)CN(C(=O)CN1C(=O)c2ccccc2C1=O)c1ccc(Cl)c(COc2cccc3ccc(C)nc23)c1Cl
105 | CC(CN1C(C)CCC1C)N1c2ccccc2Sc2ccc(C#N)cc21 (mixture of isomers)
85 to 87.5 | O=C(OCc1cc(OCCCBr)cc(OCCCBr)c1)c1ccccc1
190 to 191 | O=C(Cn1c(-c2ccc(Cl)cc2)nc2cccnc21)Nc1ccccn1
172 to 173 | N/C(=C1/Sc2ccc(Cl)cc2C1=O)c1ccccc1
81 to 82 | COc1cccc(Oc2cccnc2C(=O)NCCNC(=O)OC(C)(C)C)c1
230 | CN1CCN(c2cc3c(cc2F)c(=O)c(C(=O)O)cn3C2CC2)CC1c1ccsc1 (configuration not stated)
155 to 170 | COc1ccc2c(c1)C(c1ccccc1)C(=O)NCC2 (configuration not stated)
185 to 186 | O=c1oc2ccc(Cl)cc2c(O)c1CCO
178 to 179 | Cc1nc2c(OCc3c(Cl)cc(C(O)c4ccccc4)cc3Cl)cccn2c1Br (configuration not stated)
95 to 97 | Nc1c(C(=O)c2cccnc2N2CCOCC2)oc2ccc(Cl)cc12
181 to 182 | CN(c1cccc2cc(-c3ncc(CN4CCOCC4)s3)[nH]c12)S(=O)(=O)c1cccs1

melting point [°C] | Compound
123 to 125 | CCOC(=O)C1(NS(=O)(=O)c2ccc3c(Cl)cnc(Cl)c3c2)CCC1
119 to 120 | CCOC(=O)c1c(CCCCn2ccnc2)nc2cc(OC)c(OC)cc2c1-c1ccc(OC)c(OC)c1
125 to 128 | NS(=O)(=O)OCCOc1ccc(OCc2ccccc2)cc1
235 to 239 | O=C(Nc1ccc2[nH]c(=O)oc2c1)C(=O)N1CCC(Cc2ccc(O)cc2)CC1
119 to 122 | N=C(N)c1ccc2cc(OC(=O)CCCCCNC(=O)OCc3ccccc3)ccc2c1
77 to 80 | COC(=O)CC(O)CCSc1cc(C(C)(C)C)c(O)c(C(C)(C)C)c1 (configuration not stated)
120 to 121 | N[C@@H](Cc1ccccc1)C(=O)N1CCC[C@H]1C(=O)OCc1ccccc1
76 to 79 | O=C(c1ccccc1)N1CCC(CSc2ccccc2)CC1
109 to 113 | Cc1cc(Br)cnc1CCCCNc1nccc(=O)[nH]1
92 to 120 | CN(CC(=O)C(Cc1cccnc1)NC(=O)c1ccccc1)C(=O)N1CCCC1C(=O)O (configuration not stated)
150 to 154 | CN(C)CCNC(=O)Nc1ccc(-c2cnc(COCc3cc4ccccc4o3)o2)cc1
70 to 72 | CN(C)C(=O)CC(c1ccc(OC(F)F)c(OCC2CC2)c1)N1Cc2cccc(N)c2C1=O (configuration not stated)
115 to 117 | CCOc1ccc(-c2ccc(Cl)nn2)c(OCC(O)CNC(C)(C)C)c1 (configuration not stated)
136 to 142 | COC(=O)c1sc2c(c1N)-c1ccccc1CN2c1ccccc1
221 to 222 | Cc1cc2c(c3ccc(=O)[nH]c13)OC(CNC(=O)[C@@H](C)NC(=O)OCc1ccccc1)C2 (some centres not stated)
206 to 208 | COc1ccc(S(=O)(=O)Nc2c(C)c(C)c3c(c2C)C(c2ccc(C(C)C)cc2)C(C)(C)O3)cc1 (configuration not stated)
132 to 134 | OCCCC1=NN(c2nc3ccccc3s2)C(O)(c2ccc(Cl)cc2)C1 (configuration not stated)
56 to 58.5 | CCN(CC)CCCNC(=O)N1CCCC(S(=O)(=O)c2ccccc2)C1 (configuration not stated)
183 to 184 | O=C(O)CN1C(=O)COc2cc(F)ccc21

melting point [°C] | Compound
129 to 131 | Cc1ccc(OC(Cc2ccc(OCCNC(=O)c3ccc(-c4ccccn4)cc3)cc2)C(=O)O)cc1 (configuration not stated)
128 to 130 | O=C(NCCCc1ccncc1)N(CCC12CC3CC(CC(C3)C1)C2)Cc1ccco1
36 | CCCCc1cccc(NC(=O)C=C(C)OC)c1
160 | CC1(C)CCC(C)(C)c2cc(-c3cc(-c4ccc(C(=O)O)cc4)ccc3OCCCCNC3CC3)ccc21
335 to 337 | Cc1nnc2nc(-c3ccccc3)c3cc(Cl)ccc3n12
92 to 93 | CC(C)Oc1ccc(Cc2ccc(N)cc2)cc1
168 to 169 | Cc1cc(C)c2c(c1C)OC(=O)C2c1ccc(Br)cc1 (configuration not stated)
95.5 to 96.3 | COC(=O)c1nc(C)c(-c2ccncc2C)s1
80 | CC(c1ccccc1)C(CS)C(=O)NC(Cc1ccc(O)cc1)C(=O)O (configuration not stated)
114 to 115 | Cc1cc(CSCCC(=C(N)NCC(O)c2ccccc2)[N+](=O)[O-])sc1CN(C)C (configuration not stated)
152 to 153 | COc1ccc(Cl)cc1C(=O)NCc1ccc(CCC(=O)O)cc1
185 to 186 | CC[C@@]12C[C@@](C)(O)[C@](O)(c3ccccc3)C[C@H]1CCc1cc(OCC(=O)NCCCC#N)ccc12
94 to 96 | C[C@H](NC(=O)OCc1ccccc1)C(=O)N1CCC[C@H]1C(=O)NC1CCCCCCC1
108 | Cc1c(CC(=O)O)oc2ccccc12
53 | CCOC(=O)C(C(C)C)S(=O)(=O)c1ccc(OC)cc1 (configuration not stated)
191 | Cn1nc(C(F)(F)F)c(C(=O)Nc2ccccc2)c1-c1ccccc1O
125 | CC(C)(C)OC(=O)NC(C(=O)O)c1ccccc1O (configuration not stated)
98 to 99 | O=C(O)CCCCc1nn(-c2ccccc2)c2c1CCC2
